From PubChem BioAssay AID328 (DTP/NCI, 2004)
Values joined by “and” are separate entries in the source; they are usually repeats but may differ in a detail not shown here. Identical values can stand only once. Toxic doses and inconclusive results are not listed. How the source made its calls: active means survival T/C of 150% or more; inactive means T/C below 125% in these data.

Test system: BDF1 mice, P388 leukemia ip, median survival T/C
Assay: NCI In Vivo Anticancer Drug Screen. Data for tumor model P388 Leukemia (intraperitoneal) in B6D2F1 (BDF1) mice
Settings: endpoint: median survival time, higher = longer survival
Outline: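 Read-out is survival of treated animals expressed relative to the vehicle group, as a T/C ratio.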

[1] = dose: 50.0 mg/kg/injection, schedule: Q01DX009 (ip), vehicle: saline
[2] = dose: 200.0 mg/kg/injection, schedule: Q01DX009 (ip), vehicle: Klucel (hydroxypropylcellulose) (HPC)
[3] = dose: 50.0 mg/kg/injection, schedule: Q01DX009 (ip), vehicle: Klucel (hydroxypropylcellulose) (HPC)
[4] = dose: 100.0 mg/kg/injection, schedule: Q01DX009 (ip), vehicle: Klucel (hydroxypropylcellulose) (HPC)
[5] = dose: 100.0 mg/kg/injection, schedule: Q01DX009 (ip), vehicle: saline with Tween-80
[6] = dose: 100.0 mg/kg/injection, schedule: Q04DX003 (ip), vehicle: saline
[7] = dose: 200.0 mg/kg/injection, schedule: Q01DX009 (ip), vehicle: saline with Tween-80
[8] = dose: 400.0 mg/kg/injection, schedule: Q01DX009 (ip), vehicle: saline with Tween-80
[9] = dose: 100.0 mg/kg/injection, schedule: Q04DX003 (ip), vehicle: Klucel (hydroxypropylcellulose) (HPC)
[10] = dose: 200.0 mg/kg/injection, schedule: Q04DX003 (ip), vehicle: Klucel (hydroxypropylcellulose) (HPC)
[11] = dose: 400.0 mg/kg/injection, schedule: Q04DX003 (ip), vehicle: Klucel (hydroxypropylcellulose) (HPC)
[12] = dose: 200.0 mg/kg/injection, schedule: Q04DX003 (ip), vehicle: saline with Tween-80
[13] = dose: 400.0 mg/kg/injection, schedule: Q04DX003 (ip), vehicle: saline with Tween-80
[14] = dose: 100.0 mg/kg/injection, schedule: Q04DX003 (ip), vehicle: saline with Tween-80
[15] = dose: 100.0 mg/kg/injection, schedule: Q01DX009 (ip), vehicle: saline

Measured: T/C

CNC(=O)C(C)C1C(=O)/C(=C(O)/C=C/C(C)=C\C(C)C2OC3(C)OC(C=CC34CO4)C2C)C(=O)N1C1CCC(O)C(C)O1 (stereo unspecified)
inactive: [1] 100 % of control | [2] 109 % of control

O=C1C(Cl)CCCCC1Cl (stereo unspecified)
inactive: [3] 100 % of control | [4] 100 % of control | [2] 115 % of control

CCOC(=O)C(OCc1ccccc1)C(=O)OCC
inactive: [5] 87 % of control | [6] 115 % of control | [7] 104 % of control | dose: 200.0 mg/kg/injection, schedule: Q04DX003 (ip), vehicle: saline 90 % of control | [8] 108 % of control | dose: 400.0 mg/kg/injection, schedule: Q04DX003 (ip), vehicle: saline 90 % of control

O=C1NN(CCO)C(=S)Nc2ccccc21
inactive: [3] 100 % of control | [4] 100 % of control | [2] 90 % of control

O=C(c1ccccc1)C1(C(=O)c2ccccc2)c2ccccc2-c2ccccc21
inactive: dose: 50.0 mg/kg/injection, schedule: Q01DX005 (ip), vehicle: Klucel (hydroxypropylcellulose) (HPC) 101 % of control | dose: 100.0 mg/kg/injection, schedule: Q01DX005 (ip), vehicle: Klucel (hydroxypropylcellulose) (HPC) 104 % of control | dose: 200.0 mg/kg/injection, schedule: Q01DX005 (ip), vehicle: Klucel (hydroxypropylcellulose) (HPC) 101 % of control

Cc1cc(C)c(C)c(Br)c1C
inactive: [9] 95 % of control | [10] 100 % of control | [11] 100 % of control

CCCN(/C=C/C=C/C=[N+](CCC)CCC)CCC
inactive: dose: 0.03 mg/kg/injection, schedule: Q01DX009 (ip), vehicle: saline 99 % of control | dose: 0.05 mg/kg/injection, schedule: Q01DX009 (ip), vehicle: saline 104 % of control | dose: 0.1 mg/kg/injection, schedule: Q01DX009 (ip), vehicle: saline 106 % of control

CN(C)CCNc1cc(O)c2c(c1O)C(=O)c1ccccc1C2=O
inactive: dose: 50.0 mg/kg/injection, schedule: Q01DX005 (ip), vehicle: saline with Tween-80 113 % of control | dose: 100.0 mg/kg/injection, schedule: Q01DX005 (ip), vehicle: saline with Tween-80 103 % of control | dose: 200.0 mg/kg/injection, schedule: Q01DX005 (ip), vehicle: saline with Tween-80 113 % of control

O=c1[nH]c(=O)n(CC(O)c2ccc(Cl)s2)cc1F (stereo unspecified)
inactive: [12] 103 % of control | [13] 117 % of control

Cc1cc(C)cc(C(O)(c2cc(C)cc(C)c2)c2cc(C)cc(C)c2)c1
inactive: [9] 100 % of control | [10] 90 % of control | [11] 110 % of control

CC1=CC(=O)C=CC1(C)C(Cl)Cl (stereo unspecified)
inactive: [14] 90 % of control | [12] 105 % of control | [13] 100 % of control

O=C(O)/C=C/C(=O)Nc1ccc(Cl)c(Cl)c1
inactive: dose: 25.0 mg/kg/injection, schedule: Q01DX009 (ip), vehicle: Klucel (hydroxypropylcellulose) (HPC) 104 % of control | [3] 111 % of control | [4] 111 % of control

O=S(=O)(Nc1ccccc1)c1ccc(C2CC3(Cl)C(Cl)=C(Cl)C2(Cl)C3(Cl)Cl)cc1 (stereo unspecified)
inactive: [14] 91 % of control | [12] 91 % of control | [13] 91 % of control

CSc1cccc(NC(=O)N2CCN(c3ccccc3)CC2)c1
inactive: dose: 12.5 mg/kg/injection, schedule: Q01DX009 (ip), vehicle: DMSO 93 % of control | dose: 25.0 mg/kg/injection, schedule: Q01DX009 (ip), vehicle: DMSO 94 % of control

N#CC1C=Cc2ccccc2N1C(=O)Oc1ccccc1 (stereo unspecified)
inactive: dose: 50.0 mg/kg/injection, schedule: Q01DX009 (ip), vehicle: saline with Tween-80 110 % of control | dose: 100.0 mg/kg/injection, schedule: Q01DX001 (ip), vehicle: other 100 % of control | [5] 100 % of control | [14] 95 % of control | dose: 200.0 mg/kg/injection, schedule: Q01DX001 (ip), vehicle: other 109 % of control | [7] 110 % of control | [12] 100 % of control | dose: 400.0 mg/kg/injection, schedule: Q01DX001 (ip), vehicle: other 90 % of control | [13] 113 % of control

COc1cc(/C=N\Nc2ccccc2[N+](=O)[O-])cc(OC)c1OC
inactive: [5] 95 % of control | [7] 104 % of control | [8] 104 % of control

Cc1ccccc1N=C(N)N=C(N)N
inactive: [1] 100 % of control | [15] 100 % of control

CCN(CC)c1ccc(N)cc1
inactive: dose: 6.25 mg/kg/injection, schedule: Q04DX003 (ip), vehicle: other 100 % of control | dose: 12.5 mg/kg/injection, schedule: Q01DX009 (ip), vehicle: other 100 % of control | dose: 12.5 mg/kg/injection, schedule: Q04DX003 (ip), vehicle: other 115 % of control | dose: 25.0 mg/kg/injection, schedule: Q01DX009 (ip), vehicle: other 120 % of control | dose: 25.0 mg/kg/injection, schedule: Q04DX003 (ip), vehicle: other 110 % of control

OC1CC2CCC(C1)N2CCCN1c2ccccc2Sc2ccc(Cl)cc21 (stereo unspecified)
inactive: dose: 25.0 mg/kg/injection, schedule: Q01DX009 (ip), vehicle: saline 104 % of control | [1] 91 % of control | [6] 90 % of control

NC(=O)c1cc(=S)[nH]c2nc(Cl)nc(N)c12
inactive: dose: 100.0 mg/kg/injection, schedule: Q04DX002 (ip), vehicle: saline with Tween-80 120 % of control

Cc1ccc2nc(-c3ccc(CSC(=N)N)cc3)oc(=O)c2c1
inactive: dose: 0.78 mg/kg/injection, schedule: Q01DX009 (ip), vehicle: saline with Tween-80 96 % of control | dose: 1.56 mg/kg/injection, schedule: Q01DX009 (ip), vehicle: saline with Tween-80 99 % of control | dose: 3.12 mg/kg/injection, schedule: Q01DX009 (ip), vehicle: saline with Tween-80 96 % of control

CCCC(CCC)(C(N)=O)C(=O)O
inactive: dose: 50.0 mg/kg/injection, schedule: Q01DX001 (ip), vehicle: Klucel (hydroxypropylcellulose) (HPC) 94 % of control | dose: 100.0 mg/kg/injection, schedule: Q01DX001 (ip), vehicle: Klucel (hydroxypropylcellulose) (HPC) 100 % of control | dose: 200.0 mg/kg/injection, schedule: Q01DX001 (ip), vehicle: Klucel (hydroxypropylcellulose) (HPC) 122 % of control

CC(=O)n1ncc2ccc([N+](=O)[O-])cc21
inactive: dose: 6.25 mg/kg/injection, schedule: Q01DX009 (ip), vehicle: water 103 % of control | dose: 12.5 mg/kg/injection, schedule: Q01DX009 (ip), vehicle: water 97 % of control and 111 % of control | dose: 25.0 mg/kg/injection, schedule: Q01DX009 (ip), vehicle: water 94 % of control (2×) and 108 % of control | dose: 50.0 mg/kg/injection, schedule: Q01DX009 (ip), vehicle: water 94 % of control and 99 % of control | dose: 100.0 mg/kg/injection, schedule: Q01DX009 (ip), vehicle: water 94 % of control and 97 % of control and 105 % of control | dose: 100.0 mg/kg/injection, schedule: Q04DX003 (ip), vehicle: water 111 % of control | dose: 200.0 mg/kg/injection, schedule: Q01DX009 (ip), vehicle: water 100 % of control | dose: 200.0 mg/kg/injection, schedule: Q04DX003 (ip), vehicle: water 106 % of control | dose: 400.0 mg/kg/injection, schedule: Q01DX009 (ip), vehicle: water 96 % of control | dose: 400.0 mg/kg/injection, schedule: Q04DX003 (ip), vehicle: water 98 % of control

CC/C(=N\NS(=O)(=O)c1ccc(C)cc1)c1ccc(OC)c(OC)c1
inactive: [1] 96 % of control | [15] 96 % of control | dose: 200.0 mg/kg/injection, schedule: Q01DX009 (ip), vehicle: saline 92 % of control

CC12CCC(O)CC1CCC1C2CCC2(C)C(c3ccc(=O)oc3)C(O)C3OC132 (stereo unspecified)
inactive: dose: 3.5 mg/kg/injection, schedule: Q01DX009 (ip), vehicle: Klucel (hydroxypropylcellulose) (HPC) 100 % of control | dose: 7.0 mg/kg/injection, schedule: Q01DX009 (ip), vehicle: Klucel (hydroxypropylcellulose) (HPC) 102 % of control
